Results published in article PMC11859928, “Design, Synthesis, and Antiproliferative Activity of Novel Indole/1,2,4-Triazole Hybrids as Tubulin Polymerization Inhibitors” (Pharmaceuticals, 2025).
Where two headings read alike, the source gives them in different places.

How the values were obtained:
COLO205 = assay: NCI five-dose assay; assay type: cell-based, human; conditions: COLO205, Colon cancer
RXF393 = assay: NCI five-dose assay; assay type: cell-based, human; conditions: RXF393, Renal cancer
HCT-116 = assay: NCI five-dose assay; assay type: cell-based, human; conditions: HCT-116, Colon cancer
A549/ATCC = assay: NCI five-dose assay; assay type: cell-based, human; conditions: Non-small cell lung cancer
NCI-H322M = assay: NCI five-dose assay; assay type: cell-based, human; conditions: Non-small cell lung cancer
NCI-H23 = assay: NCI five-dose assay; assay type: cell-based, human; conditions: NCI-H23, Non-small cell lung cancer
M14 = assay: NCI five-dose assay; assay type: cell-based, human; conditions: M14, Melanoma
U251 = assay: NCI five-dose assay; assay type: cell-based, human; conditions: U251, CNS cancer
SNB-75 = assay: NCI five-dose assay; assay type: cell-based, human; conditions: SNB-75, CNS cancer
RPMI-8226 = assay: NCI five-dose assay; assay type: cell-based, human; conditions: RPMI-8226, Leukemia
SK-OV-3 = assay: NCI five-dose assay; assay type: cell-based, human; conditions: SK-OV-3, Ovarian cancer
MDA-MB-435 = assay: NCI five-dose assay; assay type: cell-based, human; conditions: MDA-MB-435, Melanoma
Melanoma subpanel = assay: NCI five-dose assay, subpanel mean; assay type: cell-based, human
SN12C = assay: NCI five-dose assay; assay type: cell-based, human; conditions: Renal cancer
SF-295 = assay: NCI five-dose assay; assay type: cell-based, human; conditions: SF-295, CNS cancer
Leukemia subpanel = assay: NCI five-dose assay, subpanel mean; assay type: cell-based, human
NCI/ADR-RES = assay: NCI five-dose assay; assay type: cell-based, human; conditions: Ovarian cancer
MALME-3M = assay: NCI five-dose assay; assay type: cell-based, human; conditions: Melanoma
UO-31 = assay: NCI five-dose assay; assay type: cell-based, human; conditions: UO-31, Renal cancer
SR = assay: NCI five-dose assay; assay type: cell-based, human; conditions: Leukemia
NCI-H522 = assay: NCI five-dose assay; assay type: cell-based, human; conditions: NCI-H522, Non-small cell lung cancer
SK-MEL-28 = assay: NCI five-dose assay; assay type: cell-based, human; conditions: SK-MEL-28, Melanoma
SK-MEL-5 = assay: NCI five-dose assay; assay type: cell-based, human; conditions: SK-MEL-5, Melanoma
HCT-15 = assay: NCI five-dose assay; assay type: cell-based, human; conditions: HCT-15, Colon cancer
[1] = system: panel of 60 human tumor cell lines; assay: NCI five-dose assay, full panel; assay type: cell-based
786-0 = assay: NCI five-dose assay; assay type: cell-based, human; conditions: 786-0, Renal cancer
[2] = Homo sapiens, read-out: GI50 Conc. per Cell Lines
[3] = Homo sapiens, 48 h, read-out: LC50 (the source's name)

Cc1ccc(/C(CSc2nnc(-c3c[nH]c4ccccc34)n2-c2ccccc2)=N/O)cc1 [Compound 7h, (Z)-2-((5-(1H-Indol-3-yl)-4-phenyl-4H-1,2,4-triazol-3-yl)thio)-1-(p-tolyl)ethanone Oxime]
TGI Conc. per Cell Lines (COLO205): 37.40 µM | CC50 (COLO205; Homo sapiens, COLO 205, 48 h, read-out: LC50 (the source's name)): > 100 µM | GI50 (COLO205; Homo sapiens, COLO 205, read-out: GI50 Conc. per Cell Lines): 3.77 µM | LC50 (concentration killing 50% of cells) (RXF393; Homo sapiens, RXF 393, 48 h): 7.65 µM | GI50 (RXF393; Homo sapiens, RXF 393, read-out: GI50 Conc. per Cell Lines): 1.85 µM | TGI Conc. per Cell Lines (RXF393): 3.76 µM | TGI Conc. per Cell Lines (HCT-116): 3.65 µM | GI50 (HCT-116; [2]): 1.87 µM | CC50 (A549/ATCC; [3]): > 100 µM | GI50 (A549/ATCC; [2]): 3.55 µM | TGI Conc. per Cell Lines (A549/ATCC): 69.70 µM | CC50 (NCI-H322M; [3]): > 100 µM | GI50 (NCI-H322M; [2]): 3.54 µM | TGI Conc. per Cell Lines (NCI-H322M): 19.80 µM | CC50 (NCI-H23; [3]): > 100 µM | GI50 (NCI-H23; [2]): 10.1 µM | TGI Conc. per Cell Lines (NCI-H23): 52.20 µM | GI50 (M14; [2]): 1.79 µM | TGI Conc. per Cell Lines (M14): 3.86 µM | CC50 (U251; Homo sapiens, U-251, 48 h, read-out: LC50 (the source's name)): > 100 µM | GI50 (U251; Homo sapiens, U-251, read-out: GI50 Conc. per Cell Lines): 8.22 µM | TGI Conc. per Cell Lines (U251): >100 µM | CC50 (SNB-75; [3]): 5.48 µM | GI50 (SNB-75; [2]): 1.4 µM | TGI Conc. per Cell Lines (SNB-75): 2.77 µM | CC50 (RPMI-8226; [3]): > 100 µM | GI50 (RPMI-8226; [2]): 2.05 µM | TGI Conc. per Cell Lines (RPMI-8226): 4.81 µM | CC50 (SK-OV-3; [3]): 7.89 µM | GI50 (SK-OV-3; [2]): 1.68 µM | TGI Conc. per Cell Lines (SK-OV-3): 3.64 µM | CC50 (MDA-MB-435; [3]): 5.72 µM | GI50 (MDA-MB-435; [2]): 1.63 µM | TGI Conc. per Cell Lines (MDA-MB-435): 3.05 µM | GI50 (Melanoma subpanel; Homo sapiens, average sensitivity of all cell lines of the Melanoma subpanel, read-out: GI50 Subpanel MID b): 2.78 µM | GI50 Selectivity Ratio (MID a/MID b) (Melanoma subpanel; Melanoma subpanel): 1.08 | CC50 (SN12C; [3]): 36.7 µM | GI50 (SN12C; [2]): 2.33 µM | TGI Conc. per Cell Lines (SN12C): 6.80 µM | CC50 (SF-295; [3]): 6.15 µM | GI50 (SF-295; [2]): 1.64 µM | TGI Conc. per Cell Lines (SF-295): 3.18 µM | GI50 (Leukemia subpanel; Homo sapiens, average sensitivity of all cell lines of the Leukemia subpanel, read-out: GI50 Subpanel MID b): 2.03 µM | GI50 Selectivity Ratio (MID a/MID b) (Leukemia subpanel; Leukemia subpanel): 1.47 | LC50 (NCI/ADR-RES; Homo sapiens, 48 h): 7.59 µM | GI50 (NCI/ADR-RES; [2]): 2 µM | TGI Conc. per Cell Lines (NCI/ADR-RES): 3.90 µM | CC50 (MALME-3M; [3]): 59.1 µM | GI50 (MALME-3M; [2]): 2.26 µM | TGI Conc. per Cell Lines (MALME-3M): 5.57 µM | CC50 (UO-31; [3]): 9.47 µM | GI50 (UO-31; [2]): 1.82 µM | TGI Conc. per Cell Lines (UO-31): 4.15 µM | CC50 (SR; [3]): > 100 µM | TGI Conc. per Cell Lines (SR): ˃100 µM | CC50 (NCI-H522; [3]): > 100 µM | GI50 (NCI-H522; [2]): 2.24 µM | TGI Conc. per Cell Lines (NCI-H522): 6.04 µM | CC50 (SK-MEL-28; [3]): > 100 µM | GI50 (SK-MEL-28; [2]): 5.67 µM | TGI Conc. per Cell Lines (SK-MEL-28): 38.7 µM | CC50 (SK-MEL-5; [3]): > 100 µM | GI50 (SK-MEL-5; [2]): 4.76 µM | TGI Conc. per Cell Lines (SK-MEL-5): 48.1 µM | TGI Conc. per Cell Lines (HCT-15): 3.34 µM | CC50 (HCT-15; [3]): 6.37 µM | GI50 (HCT-15; [2]): 1.75 µM | GI50 ([1]; average sensitivity of all cell lines, read-out: GI50 MID a): 3 µM | GI50 ([1]; most of the tested cell lines across nine subpanels, read-out: GI50 values, range across nine subpanels): 1.85 to 5.76 µM | TGI Conc. per Cell Lines (786-0): 31.40 µM | LC50 (50% lethal concentration) (786-0; Homo sapiens, 48 h): 98.1 µM | GI50 (786-0; [2]): 10 µM
